The text below walks through data of patent US20230142338A1, “THIOPHENYL DERIVATIVES USEFUL FOR MODULATING NUCLEIC ACID SPLICING” (REMIX THERAPEUTICS INC., priority 2020, published 2023).

What all share (assay type): cell-based
One test relates to HTT AJ mRNA. Put plainly: Splicing assay (RT-qPCR): increase in HTT alternative junction (AJ) mRNA. To be noted: A673 or K562 cells, 24 hours treatment; concentration having 50% response in AJ mRNA increase. In short, it runs like this: (§1)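 A673 (DMEM/10% FBS) or K562 (IMDM/10% FBS) cells treated 24 h at 37 °C with 11-point 3-fold dilutions, top final 10 uM, DMSO ≤0.25%. Lysates taken directly to RT-qPCR for HTT CJ and AJ isoforms, normalized to GAPDH, GUSB or PPIA. ΔΔCt vs DMSO control converted to RQ (2^−ΔΔCt), then percentage response.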
A general note: In qPCR the cycle at which signal appears reflects the starting amount.

In test [1] the test system is HTT CJ mRNA. Put plainly: Gene panel canonical junction qPCR assay: HTT. Particulars: Table 3, concentration having 50% response in CJ decrease, read-out: HTT IC50 (decrease in CJ mRNA levels). In a few lines:
(§2)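 A673 or K562 cells were treated 24 h at 37 °C with an 11-point 3-fold dilution series (top 10 uM; ≤0.25% DMSO). Canonical-junction mRNA was then measured in lysates by one-step RT-qPCR. Values were normalized to a housekeeping gene (GAPDH, GUSB or PPIA) and to the DMSO control via 2^(−ΔΔCt).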

In test [2] the test system is HTT CJ mRNA. In words: Splicing assay (RT-qPCR): decrease in HTT canonical junction (CJ) mRNA. To be noted: A673 or K562 cells, 24 hours treatment; concentration having 50% response in CJ mRNA decrease. In short, it runs like this: as §1
For a further test, the system named is Target C CJ mRNA. Put plainly: Gene panel canonical junction qPCR assay: Target C. To be noted: Table 3, concentration having 50% response in CJ decrease, read-out: Target C IC50 (decrease in CJ mRNA levels). In short, it runs like this: as §2
The test system of another test is SMN2 CJ mRNA. Put plainly: Gene panel canonical junction qPCR assay: SMN2. Particulars: Table 3, concentration having 50% response in CJ decrease, read-out: SMN2 IC50 (decrease in CJ mRNA levels). In short, it runs like this:
as §2

pIC50: −log10 of the molar value. Structures can show the parent of a compound that is named as a salt.

A word on the AC50: it is the midpoint of the concentration-response curve, whichever way the signal moves. High values mean weaker potency, low ones greater potency. By pIC50 is commonly meant −log10 of the IC50, conventionally taken in molar units. Consider `Cc1nc2c(F)cc(NC(=O)c3sc(N4CCNC(C)C4)cc3F)cc2s1` (stereo not drawn) [Compound 165, 3-fluoro-N-(4-fluoro-2-methyl-1,3-benzothiazol-6-yl)-5-(3-methylpiperazin-1-yl)thiophene-2-carboxamide], for which the AC50 in the test on HTT AJ mRNA and in the test with HTT CJ mRNA [2] was greater than 10000 nM each time. Further, the pIC50 in the test on HTT CJ mRNA [1] is less than 8.00; in the test on Target C CJ mRNA, 6.00 to 7.00; with SMN2 CJ mRNA, 5.00 to 6.00.
For `Cc1cn2cc(NC(=O)c3sc(N4CCNC(C)C4)cc3F)c(C)cc2n1` (stereo not drawn) [Compound 166, N-[2,7-dimethylimidazo[1,2-a]pyridin-6-yl]-3-fluoro-5-(3-methylpiperazin-1-yl)thiophene-2-carboxamide], the AC50 in the test with HTT AJ mRNA and with HTT CJ mRNA [2] was greater than 10000 nM each time. The pIC50 in the test on HTT CJ mRNA [1] was less than 8.00; in the test with Target C CJ mRNA it was less than 8.00; with SMN2 CJ mRNA, 5.00 to 6.00.
Take `Cc1cn2cc(NC(=O)c3sc(N4CCNC(C)C4)cc3F)ncc2n1` (stereo not drawn) [Compound 167, 3-fluoro-N-[2-methylimidazo[1,2-a]pyrazin-6-yl]-5-(3-methylpiperazin-1-yl)thiophene-2-carboxamide]: the AC50 with HTT AJ mRNA and in the test with HTT CJ mRNA [2] was greater than 10000 nM each time. Besides, the negative logarithm of the IC50 (pIC50) was less than 8.00 in the test with HTT CJ mRNA [1], less than 8.00 in the test on Target C CJ mRNA and 6.00 to 7.00 with SMN2 CJ mRNA.
For `Cc1cn2nc(NC(=O)c3sc(N4CCNC(C)C4)cc3F)nc2c(C)n1` (stereo not drawn) [Compound 169, hydrochloride], the half-maximal activity concentration (AC50) in the test with HTT AJ mRNA and with HTT CJ mRNA [2] was greater than 10000 nM throughout. The negative-log IC50 (pIC50) in the test on HTT CJ mRNA [1], in the test with Target C CJ mRNA and in the test with SMN2 CJ mRNA was less than 8.00 throughout.
With `Cc1cn2cc(NC(=O)c3sc(N4CCNC(C)C4)cc3F)cc(C)c2n1` (stereo not drawn) [Compound 172, N-[2,8-dimethylimidazo[1,2-a]pyridin-6-yl]-3-fluoro-5-(3-methylpiperazin-1-yl)thiophene-2-carboxamide], the AC50 in the test on HTT AJ mRNA and with HTT CJ mRNA [2] was greater than 10000 nM each time. For the same molecule, the negative logarithm of the IC50 (pIC50) with HTT CJ mRNA [1] is less than 8.00; in the test with Target C CJ mRNA, less than 8.00; with SMN2 CJ mRNA, 5.00 to 6.00.
As to `COc1cc(C2CCNCC2)sc1C(=O)Nc1cc(F)c2nc(C)cn2c1` [Compound 173, N-[8-fluoro-2-methylimidazo [1,2-a]pyridin-6-yl]-3-methoxy-5-(piperidin-4-yl)thiophene-2-carboxamide], the half-maximal activity concentration (AC50) in the test on HTT AJ mRNA and with HTT CJ mRNA [2] was greater than 10000 nM throughout. Moreover, the negative logarithm of the IC50 (pIC50) in the test on HTT CJ mRNA [1], in the test on Target C CJ mRNA and in the test with SMN2 CJ mRNA was less than 8.00 throughout.
As to `Cc1cn2cc(NC(=O)c3ccc(C4CCNCC4)s3)cc(F)c2n1` [Compound 174, N-[8-fluoro-2-methylimidazo[1,2-a]pyridin-6-yl]-5-(piperidin-4-yl) thiophene-2-carboxamide], the AC50 in the test on HTT AJ mRNA and in the test with HTT CJ mRNA [2] was 1000 to 10000 nM in each case. The negative logarithm of the IC50 (pIC50) is 6.00 to 7.00 with HTT CJ mRNA [1], 5.00 to 6.00 in the test on Target C CJ mRNA and 6.00 to 7.00 in the test with SMN2 CJ mRNA.
As to `Cc1cn2cc(NC(=O)c3sc(C4CCNCC4)cc3F)c(C)cc2n1` [Compound 178, N-[2,7-dimethylimidazo[1,2-a]pyridin-6-yl]-3-fluoro-5-(piperidin-4-yl)thiophene-2-carboxamide], the half-maximal activity concentration (AC50) in the test on HTT AJ mRNA and with HTT CJ mRNA [2] was 1000 to 10000 nM in each case. Further, the negative-log IC50 (pIC50) was 5.00 to 6.00 with HTT CJ mRNA [1], less than 8.00 with Target C CJ mRNA and 6.00 to 7.00 with SMN2 CJ mRNA.
With `Cc1cn2cc(NC(=O)c3sc(C4CCNCC4)cc3F)ncc2n1` [Compound 179, 3-fluoro-N-[2-methylimidazo[1,2-a]pyrazin-6-yl]-5-(piperidin-4-yl)thiophene-2-carboxamide], the figures for the AC50 with HTT AJ mRNA and in the test with HTT CJ mRNA [2] were 1000 to 10000 nM and 100 to 1000 nM, respectively. For the same molecule, the negative-log IC50 (pIC50) with HTT CJ mRNA [1] is 6.00 to 7.00; with Target C CJ mRNA, 5.00 to 6.00; in the test with SMN2 CJ mRNA, 5.00 to 6.00.
